pIC50: −log10 of the molar value.
Experiments:
MRC5 [1] = experiment: Cytotoxicity against human MRC5 cells after 72 hrs by MTT assay; type: cell-based; details: MRC5, 72 h
MRC5 [2] = experiment: Selectivity index, ratio of IC50 for human MRC5 cells to IC50 for human PC3 cells; type: functional
PC-3 = experiment: Cytotoxicity against human PC3 cells after 72 hrs by MTT assay; type: functional, cell-based; details: PC-3, 72 h
A549 = experiment: Cytotoxicity against human A549 cells after 72 hrs by MTT assay; type: functional, cell-based; details: A549, 72 h

Row | SMILES | pIC50 (MRC5 [1]) | Ratio IC50 (MRC5 [2]) | pIC50 (PC-3) | pIC50 (A549)
1 | O.O=C(N/N=C/c1cc(C[P+](c2ccccc2)(c2ccccc2)c2ccccc2)ccc1O)c1ccccc1.[Cl-] | 4.91 | 0.85 | 4.84 | < 4.52
2 | O=Cc1cc(C[P+](c2ccccc2)(c2ccccc2)c2ccccc2)ccc1O | < 4.52 | – | < 4.52 | < 4.52

Reference: ChEMBL document CHEMBL3124797, “Copper complexes with phosphonium containing hydrazone ligand: topoisomerase inhibition and cytotoxicity study” (Eur J Med Chem, 2014)
